Experiments:
[1] = tested on: RXR; details: RXR antagonist; cited from earlier work
[2] = tested on: ARPE-19 cells; test: ox-LDL-induced RPE (ARPE-19) cell death; format: cell-based; details: for protection of RPE from ox-LDL-induced cell death (FIG. 7): UVI3003 20 μM, troglitazone 1.3 μM alone or in combination with T0070907 and GW9662; for effect on the protection by PPARγ agonist troglitazone on RPE (FIG. 7): ARPE-19, ox-LDL, combined with troglitazone (1.3 μM)
Description: In FIG. 1B, ARPE-19 cells were treated for 48 hr with LDL or ox-LDL at 25, 50, or 100 μg/ml. Conditioned media were harvested, and LDH levels were quantified to evaluate cell death.
FIG. 5 is a bar graph showing testing different PPARγ agonists for RPE (ARPE-19) protection.
FIG. 7 is a bar graph showing testing the effect of different PPAR(α, γ) and RXR antagonists in ox-LDL-induced RPE (ARPE-19) cell death.

[3] = molecular target: T1, PPARγ (Homo sapiens, UniProt P37231); details: PPARγ antagonist; cited from earlier work
T1 sequence (P37231 1-505): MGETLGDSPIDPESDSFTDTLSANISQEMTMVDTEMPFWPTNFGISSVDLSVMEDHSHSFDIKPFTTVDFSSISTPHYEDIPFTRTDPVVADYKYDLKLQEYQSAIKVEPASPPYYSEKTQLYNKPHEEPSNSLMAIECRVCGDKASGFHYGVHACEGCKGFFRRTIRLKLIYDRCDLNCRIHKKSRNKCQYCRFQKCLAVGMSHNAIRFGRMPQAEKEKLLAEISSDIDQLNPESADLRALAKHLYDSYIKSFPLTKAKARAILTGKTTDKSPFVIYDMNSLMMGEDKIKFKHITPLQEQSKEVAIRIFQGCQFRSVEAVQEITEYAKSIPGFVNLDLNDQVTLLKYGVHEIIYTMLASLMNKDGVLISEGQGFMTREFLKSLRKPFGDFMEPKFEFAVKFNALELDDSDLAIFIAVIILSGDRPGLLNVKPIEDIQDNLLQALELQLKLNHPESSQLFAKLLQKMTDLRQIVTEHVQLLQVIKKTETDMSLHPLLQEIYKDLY

[4] = molecular target: T1, PPARγ; details: PPARγ agonist; cited from earlier work
[5] = tested on: primary human RPE cells; test: chloroquine-induced death of primary human RPE cells
[6] = tested on: human primary RPE cells; test: ox-LDL-induced cell death of human primary RPE
Description: For both, RPE cells were treated with 500 μg/mL of ox-LDL for 48 hr. Data=mean±SEM, **P<0.01 and ***P<0.001 compared to ox-LDL group (2-tailed unpaired t-test).
Data=mean±SEM, ***P<0.001 compared to ox-LDL group (2-tailed unpaired t-test).

[7] = tested on: caspase-1 activation in ARPE-19 cells; test: ox-LDL-induced caspase-1 activation (FLICA probe) in ARPE-19 cells; format: cell-based; details: ARPE-19 serum-starved 24 hr, ox-LDL 100 μg/ml, troglitazone 1.3 μM, 48 hr
Description: Cells were imaged by fluorescent microscope and the numbers of capase-1 positive cells for each treatment group were quantified by a masked investigator.

[8] = tested on: PPARγ target genes (ANGPT, ACOX3) in ARPE19 cells; test: PPARγ target genes expression in ARPE19 cells; details: 48-hour treatment, troglitazone vs. rosiglitazone

## CCCCCOc1cc2c(cc1-c1cc(/C=C/C(=O)O)ccc1O)C(C)(C)CCC2(C)C [UVI3003]
[1]
  IC50: < 1 µM
[2]; ARPE-19
  protection of RPE from ox-LDL-induced cell death (FIG. 7): significantly protected RPE from ox-LDL-induced death
[2]; ARPE-19, UVI3003 at high dose (20 μM)
  protection of RPE from ox-LDL-induced death: about 100%

## O=C(Nc1ccccc1)c1cc([N+](=O)[O-])ccc1Cl [GW9662]
[2]
  effect on the protection by PPARγ agonist troglitazone on RPE (FIG. 7): did not affect the protection effect
[2]; ARPE-19
  protection of RPE from ox-LDL-induced cell death (FIG. 7): did not have any detectable protection effect
[3]
  IC50: < 0.1 µM

## O=C1NC(=O)C(Cc2ccc3cc(OCc4ccccc4F)ccc3c2)S1 (stereo not drawn) [MCC-555]
[4]
  EC50 relative to rosiglitazone: lower than that of rosiglitazone

## CCC(=O)NC[C@H](Cc1ccc(OCCc2nc(-c3ccccc3)oc2C)cc1)N/C(C)=C\C(=O)c1ccc(C(F)(F)F)cc1 [GW6471]
[2]; ARPE-19
  protection of RPE from ox-LDL-induced cell death (FIG. 7): no detectable effect in RPE protection

## CCCCC/C=C/C=C1/C(=O)C=C[C@@H]1C/C=C\CCCC(=O)O [PGJ2, 15-deoxy-Δ^12,14-Prostaglandin J2]
[4]
  EC50: 2 to 7 µM

## Cc1c(C)c2c(c(C)c1O)CCC(C)(COc1ccc(CC3SC(=O)NC3=O)cc1)O2 (racemic) [troglitazone, (RS)-5-(4-[(6-hydroxy-2,5,7,8-tetramethylchroman-2-yl)methoxy]benzyl)thiazolidine-2,4-dione]
[5]
  suppression of RPE death induced by chloroquine (FIG. 4): ineffective
[2]; ARPE-19
  protection of RPE from ox-LDL-induced cell death (FIG. 7): significantly protected the RPE against ox-LDL-induced cell death
[2]; ARPE-19, troglitazone at 0.65 and 3.25 μM
  protection of RPE from ox-LDL-induced cell death (FIG. 5): significantly protected RPE cell from ox-LDL-induced cell death
[6]; human primary RPE, 500 μg/mL ox-LDL for 48 hr, doses of 0.65 μM and 0.98 μM
  decrease of ox-LDL-induced cell death (FIG. 2B): significantly decreased cell death in a dose-dependent manner
[6]; primary human RPE cells
  suppression of ox-LDL-induced death of primary human RPE cells (FIG. 4): significantly suppressed ox-LDL-induced death
[7]
  suppression of ox-LDL-induced caspase-1 activation (FIG. 3): significantly suppressed ox-LDL-induced caspase-1 activation
[8]
  expression levels of PPARγ target genes ANGPT (angiopoietin-like-4) and ACOX3 (FIGS. 6A-B): differentially affected

## O=C(Nc1ccncc1)c1cc([N+](=O)[O-])ccc1Cl [T0070907]
[2]
  effect on the protection by PPARγ agonist troglitazone on RPE (FIG. 7): did not affect the protection effect
[2]; ARPE-19
  protection of RPE from ox-LDL-induced cell death (FIG. 7): did not have any detectable protection effect
